Measured values taken from ChEMBL document CHEMBL3507680, “University of Dundee, Gates Library screen for HepG2 cell viability”.

Assay: Human HepG2 cell viability assay in 384 well format
Type: toxicity, cell-based
Set-up: dose 125 nL, time 70.5 hour; concentration not given beside the values
Conditions: HepG2 cells, read-out: Inhibition

Going from Cc1cc(=O)n(CC(=O)Nc2cccc(Cl)c2)nc1C to O=C1CCNc2ncc(-c3cccc(Cl)c3)cc2CN1C1CC1, the cytotoxicity at 70.5 h falls from 21.6% to -1.89%.

Going from CCc1noc(CN2CCN(c3nccs3)CC2)n1 to Cc1nc(CN2CCN(C(=O)COc3c(C)ccc(C)c3C)CC2)no1, the cytotoxicity at 70.5 h falls from 10.7% to -4.73%.

Compared with COc1ccc2c(c1)C(=O)CC1(CCN(Cc3ccc(F)cc3)CC1)O2, CN1CC2(CCCN(Cc3cccc(Oc4ccccc4)c3)C2)OC1=O (stereo not given) is higher in cytotoxicity at 70.5 h: 21.7% for the first, 24.6% for the second.

Compared with Cc1nc(N(C)C)nc2c1COCC21CCN(C(=O)NCC(C)C)C1 (stereo not given), CC[C@H]1CN(C(=O)c2cnc(N3CCN(C)CC3)nc2C)CC[C@@]1(C)O is lower in cytotoxicity at 70.5 h: -7.67% for the first, -7.86% for the second.

Compared with c1ccc(Cc2nc(CN3CCCC3Cn3cncn3)cs2)cc1 (stereo not given), O=C(Cc1csc(-c2nnc[nH]2)n1)N1CCCC1Cn1cccn1 (stereo not given) is lower in cytotoxicity at 70.5 h: -7.1% for the first, -8.18% for the second.

Going from CC(C)N(Cc1cnn(C)c1)CC1CCCN(S(C)(=O)=O)C1 (stereo not given) to CC(C)c1nc(CN2CCCC2c2cnn(C)c2)cs1 (stereo not given), the cytotoxicity at 70.5 h falls from 10.1% to -2.88%.

First: CC(C)(C)c1ncc(C(=O)NCCNS(C)(=O)=O)s1
Second: CC(C)Cc1noc(CN(C)C(=O)CCNC(=O)c2ccccc2F)n1
The cytotoxicity at 70.5 h of the first is higher: -7.98% for the first, -8.23% for the second.

First: CCS(=O)(=O)c1ncc(CN(C)Cc2ccccc2Cl)n1CCOC
Second: COCCN(Cc1ccccn1)C(=O)c1ccc(=O)n(C)c1
The cytotoxicity at 70.5 h of the first is lower: -2.37% for the first, 1.44% for the second.

Going from O=C(Nc1cc(C(F)(F)F)c[nH]c1=O)C1CCCNC1 (stereo not given) to Cc1ccc(C(=O)N2CCC(C(F)(F)F)CC2)cc1N1CCNC1=O, the cytotoxicity at 70.5 h rises from -8% to 4.91%.

First: Cc1nc(CC(=O)N2CCC(Nc3cccnn3)CC2)cs1
Second: Cc1nc(CN2C[C@@H]3CN(C(=O)C4CC4)C[C@@H]3C2=O)cs1
The cytotoxicity at 70.5 h of the first is lower: -6.73% for the first, 27.3% for the second.

Compared with COc1c(CNC2CCCc3ccccc32)c(C)nn1C (stereo not given), CC(C)(C)c1cc(=O)[nH]c(-c2ccccc2CN2CCC[C@@H](O)C2)n1 is higher in cytotoxicity at 70.5 h: -8% for the first, -2.12% for the second.

First: Cc1ccc(NS(=O)(=O)c2cc3c(c(C(=O)O)c2)OCCO3)cc1C
Second: O=C(NS(=O)(=O)c1cc(Cl)ccc1Cl)c1cccc2c1OCCO2
The cytotoxicity at 70.5 h of the first is lower: -5.96% for the first, 58.5% for the second.

First: CCN(C)c1ccc(CNC(=O)c2ccc(NC(N)=O)cc2)cc1F
Second: CC(=O)c1ccc(NC(=O)NC(C)c2ccc3c(c2)CC(=O)N3)cc1 (stereo not given)
The cytotoxicity at 70.5 h of the first is lower: -17.6% for the first, 2.82% for the second.

First: CCc1nnc(CN(C)C(=O)C2CC(=O)N(C3CC3)C2)o1 (stereo not given)
Second: CCC[C@@H]1CN(Cc2nnc(-c3cccc(F)c3)o2)C[C@H]1NC(C)=O
The cytotoxicity at 70.5 h of the first is higher: -6.39% for the first, -15.2% for the second.

Going from Cc1ccc(-n2c(O)cc(C)c(C#N)c2=O)c(C)c1 to CC(CNC(=O)c1ccc(C#N)cc1)N1CCc2ccccc21 (stereo not given), the cytotoxicity at 70.5 h rises from -1.45% to 0.334%.

Going from CCc1ncc(CN(C)C2CCN(c3sccc3C#N)C2=O)s1 (stereo not given) to COCCn1ccnc1C1CCN(c2cccc(C(=O)O)n2)CC1, the cytotoxicity at 70.5 h falls from -2.11% to -3.81%.

Compared with CCC(=O)N1CCCN(c2cncc(-n3nc(C)cc3C)n2)CC1, CCn1ccnc1CN1CCCN(C(=O)Cc2ccccc2C)CC1 is higher in cytotoxicity at 70.5 h: -4.7% for the first, -1.08% for the second.

First: CN(CCC#N)C(=O)CCOc1cccc(F)c1
Second: CN(Cc1cccc(F)c1)C(=O)CS(=O)(=O)Cc1ccc(Cl)c(Cl)c1
The cytotoxicity at 70.5 h of the first is higher: 13% for the first, -11.2% for the second.

Compared with Cc1nc(N2CCC(C(O)c3nccn3C)CC2)c2nc(C)oc2n1 (stereo not given), Cc1ncccc1NC(=O)c1nc2c(n1C)CCN(C(=O)C1CC1)C2 is lower in cytotoxicity at 70.5 h: -5.83% for the first, -8.28% for the second.

First: O=C(NCC(F)(F)F)c1ccc(-n2cncn2)nn1
Second: O=C(NCCc1cccnc1)c1cn(CCN2CCNCC2)nn1
The cytotoxicity at 70.5 h of the first is higher: 1.36% for the first, -5.26% for the second.

First: Cc1cc(C)cc(NCCC(=O)NC2CCN(C(=O)C3CC3)CC2)c1
Second: CC(=O)c1cc2ncc(C(=O)NC3CC3)cc2[nH]1
The cytotoxicity at 70.5 h of the first is lower: -2.45% for the first, 16% for the second.

First: O=C(Nc1ccccc1F)N1CCN(Cc2noc(C3CC3)n2)CC1
Second: O=C1CN(C(=O)C2CN(c3cccc(F)c3)CCO2)CCN1 (stereo not given)
The cytotoxicity at 70.5 h of the first is lower: -10.2% for the first, -5.92% for the second.

Compared with N#Cc1ccc(CNc2cccc(C(=O)N3CCOCC3)c2)cc1, O=C(c1ccccc1-c1ccccc1)N1CCOC2(CNCCOC2)C1 (stereo not given) is lower in cytotoxicity at 70.5 h: -9.56% for the first, -11.1% for the second.

Compared with O=C(c1ccsc1)N1CCc2c(nc(-c3ccncc3)[nH]c2=O)C1, O=C(c1coc(COc2cccc3cnccc23)n1)N1CCSCC1 is higher in cytotoxicity at 70.5 h: -6.38% for the first, -5.09% for the second.

Going from CC(C)NC(=O)c1ccc2c(c1)C(c1nc[nH]n1)CN2S(C)(=O)=O (stereo not given) to COc1ccc(C(=O)N(Cc2cnn(C)c2)C(C)C)cc1OC(F)F, the cytotoxicity at 70.5 h rises from -14.8% to -3.59%.

First: CC(=O)N1CCN(CC(N)=O)CC(COc2ccccc2)C1 (stereo not given)
Second: CC1CN(Cc2ccccc2)CCCN1CCS(C)(=O)=O (stereo not given)
The cytotoxicity at 70.5 h of the first is higher: 6.55% for the first, -2.05% for the second.

Going from CS(=O)(=O)N1CCc2[nH]cnc2C12CCN(C(=O)c1cccnc1)CC2 to O=C(c1ccc(-n2cnnc2)nc1)N1CCCC(O)(CO)CC1 (stereo not given), the cytotoxicity at 70.5 h falls from -0.221% to -22.7%.

Going from CCNC(=O)O[C@H]1COCCN(c2nc3ccccc3s2)C1 to O=C(CN1CCSC(c2ccccc2)C1)NCc1ccccn1 (stereo not given), the cytotoxicity at 70.5 h falls from -2.95% to -5.23%.

Compared with O=C1[C@@H]2CCN(C3CCC3)C[C@@H]2OCCN1Cc1ccncc1, c1cncc(CN2CCc3ncnc(C4CCOC4)c3CC2)c1 (stereo not given) is higher in cytotoxicity at 70.5 h: 20.5% for the first, 22.8% for the second.

Compared with CNC(=O)c1ccc(C(=O)N2CCCCC2Cn2cc(C)cn2)cn1 (stereo not given), COCCCN1C(=O)CC[C@H]2CN(c3ccc(C(N)=O)cn3)CC[C@H]21 is higher in cytotoxicity at 70.5 h: -5.34% for the first, 4.03% for the second.

Going from OC1(CNCCc2csc(-c3cccnc3)n2)CCNC1 (stereo not given) to c1cncc(NCCNC2CCSCC2)c1, the cytotoxicity at 70.5 h rises from -14.2% to -2.74%.

First: CC(c1ccc(F)cc1F)N1CCN(CCN2CCCC2=O)CC1 (stereo not given)
Second: CC(NC(=O)c1ccc(=O)n(C)c1)c1ccc(OCC2CC2)c(F)c1 (stereo not given)
The cytotoxicity at 70.5 h of the first is higher: -4.44% for the first, -11.1% for the second.

Compared with Cc1nc(C(C)N2Cc3ncccc3C2=O)cs1 (stereo not given), Cc1cccc(C(=O)N2C[C@@H]3[C@H](CC(=O)Nc4cccnc4)[C@@H]3C2)n1 is lower in cytotoxicity at 70.5 h: -12.4% for the first, -14.3% for the second.

First: CCc1nc(Cn2cncc(Br)c2=O)no1
Second: COCCn1cncc1CN1CCCC(C(=O)Cc2ccccc2)C1 (stereo not given)
The cytotoxicity at 70.5 h of the first is lower: -8.84% for the first, 0.198% for the second.

Going from NCCc1n[nH]c(=O)n1-c1cccc2ccccc12 to CN(C)S(=O)(=O)c1cccc(CNc2cc(CO)ccc2Cl)c1, the cytotoxicity at 70.5 h falls from -4.93% to -13.5%.

Compared with CC(C)(C)C(O)CN1CCN(CC(=O)NC(C2CC2)C2CC2)CC1 (stereo not given), CCN1CCC(CNC(=O)Nc2cc(C)on2)C1 (stereo not given) is lower in cytotoxicity at 70.5 h: 2.37% for the first, -4.44% for the second.

First: Cn1cc(C(O)CNC(=O)c2cc(Br)ccc2Cl)cn1 (stereo not given)
Second: CCN(C)C(=O)c1cc(-c2ccn(C(C)C)n2)n2ccccc12
The cytotoxicity at 70.5 h of the first is lower: -14.2% for the first, -3.51% for the second.

Going from Cc1noc(C)c1CN1C[C@@H](NC(=O)N(C)C)[C@H](C(C)C)C1 to Cc1c[nH]c(CN2CCCCC2CCn2ccnc2C)c(C)c1=O (stereo not given), the cytotoxicity at 70.5 h falls from -6.75% to -8.38%.

Compared with COc1cc2cc(C(=O)N[C@@H](C)C(=O)O)n(C)c2c(OC)c1OC, Cc1ccc(C(=O)N(CC(=O)O)CC(C)C)cc1F is lower in cytotoxicity at 70.5 h: -4.88% for the first, -7.92% for the second.

First: CN(CC1CC1)C(=O)c1cc2c(c(S(N)(=O)=O)c1)CCC2
Second: O=C(C1CCOC1)N1CCN(CCn2cccn2)c2ncccc2C1 (stereo not given)
The cytotoxicity at 70.5 h of the first is higher: 2.25% for the first, -1.8% for the second.
